Key:
[1] = 1H NMR titration with TBA iodide in 10% DMSO-d6/CDCl3; assay type: binding; settings: I^− (TBA salt), 10% DMSO-d6/CDCl3, 1 mM receptor, 1:1 model
Text: (§1) To simplify the mode of binding in these receptors, as well as to lower the association constant of nitrate and bromide to a measurable amount, other solvent systems were investigated. Low solubility of the tripodal receptors limited the solvent possibilities. We also aimed to maintain competition between binding of the anion and solvent molecules to provide further evidence for the strong binding of nitrate in competitive solvents, a critical feature for applications in environmental monitoring. […] In addition, DMSO is a strong hydrogen bond acceptor, thus a lower association constant would be expected. Initial upfield shifts, followed by downfield shifts of the urea protons were observed upon the addition of TBANO3 1 mM solutions of 1 in 2% DMSO-d6/CDCl3 and 5% DMSO-d6/CDCl3. The titration curves indicate a more complicated system than a 1:1 model; however, the data still could not be fit to a standard model. […]
(§2) Titrations in 10% DMSO-d6/CDCl3 were performed at a constant 1 mM concentration of 1. The change in chemical shift was monitored throughout the titration and fit to a 1:1 model using linear regression analysis. […] The binding constants of each anion investigated and the calculated total Δδ values based on the determined constant are presented in Table 2. […]

[2] = 1H NMR titration with TBA nitrate in 10% DMSO-d6/CDCl3; assay type: binding; settings: 10% DMSO-d6/CDCl3, from Ka values
Text: as §1, with “DMSO-d6/CDCl3.” for “DMSO-d6/CDCl3. The titration curves indicate a more complicated system than a 1:1 model; however, the data still could not be fit to a standard model.”
as §2
Similar to 1, host:guest complexes of 2 were investigated through 1H NMR spectroscopy titrations in 10% DMSO-d6/CDCl3. […] The urea protons (H^a and H^b), nitrophenyl protons (H^c and H^d), and core proton (H^core) were monitored throughout the titrations. […]

[3] = 1H NMR titration with TBA chloride in acetone-d6; assay type: binding; settings: Cl^− (TBA salt), acetone-d6, 0.5 mM receptor
Experimental: (§3) Interaction of 1 with anions in solution was investigated by 1H NMR spectroscopy. Initial titration experiments were performed at 0.5 mM of 1 in acetone-d6 due to its limited solubility in other solvents, despite the potential solvent competition as a hydrogen bond acceptor. […] Changes in chemical shifts of H^c and H^d were also observed, but to a lesser extent, with H^d moving upfield. Large downfield shifts of the urea protons indicate hydrogen bonds of the ureas to the anion as the main mode of binding. Change in chemical shift corresponding to the addition of NO3^− or Br^− begins to maximize at approximately 0.5 equiv. of guest, indicating a possible 2:1 binding model in acetone.

[4] = 1H NMR titration with TBA bromide in acetone-d6; settings: Br^−, acetone-d6, 0.5 mM receptor; lower limit inferred from sharp binding curve, no reproducible fit
Experimental: as §3

[5] = 1H NMR titration with TBA bromide in 10% DMSO-d6/CDCl3; assay type: binding; settings: Br^− (TBA salt), 10% DMSO-d6/CDCl3, 1 mM receptor, 1:1 model
Text: as §1, §2

SMILES: CC(C)(C)c1ccc(NC(=O)Nc2ccc([N+](=O)[O-])cc2)c(C#Cc2c(F)c(C#Cc3cc(C(C)(C)C)ccc3NC(=O)Nc3ccc([N+](=O)[O-])cc3)c(F)c(C#Cc3cc(C(C)(C)C)ccc3NC(=O)Nc3ccc([N+](=O)[O-])cc3)c2F)c1 [compound 1]
- Association constant Ka [1]: 755 (85) M^−1
- selectivity for nitrate over chloride [2]: moderate selectivity for nitrate
- 1:1 binding constant [3]: 8620 ± 1170 M⁻¹
- Ka [4]: > 104 M⁻¹
- Association constant Ka [5]: 8320 (876) M^−1

SMILES: CC(C)(C)c1ccc(NC(=O)Nc2ccc([N+](=O)[O-])cc2)c(C#Cc2cc(C#Cc3cc(C(C)(C)C)ccc3NC(=O)Nc3ccc([N+](=O)[O-])cc3)cc(C#Cc3cc(C(C)(C)C)ccc3NC(=O)Nc3ccc([N+](=O)[O-])cc3)c2)c1 [compound 2]
- selectivity for nitrate over chloride [2]: loss in selectivity for NO3^− over Cl^−
